Laboratory results from EPA's ToxValDB 9.5 (doi:10.2903/j.efsa.2010.1783).
Converted amounts (≈) assume the structure as drawn.

Legend:
Anas platyrhynchos = conditions: acute; oral; unspecified; mortality
Colinus virginianus = conditions: acute, oral, mortality
Coturnix japonica = conditions: reproduction developmental; duration: 20 weeks
Daphnia magna = conditions: acute; duration: 48 hours; mortality
Oncorhynchus mykiss = conditions: acute; duration: 96 hours; mortality
Oryctolagus sp. = conditions: subchronic; duration: 90 days; oral; hematological
Rattus norvegicus = conditions: acute; oral; mortality
Tagia sp. = conditions: acute; duration: 14 days; mortality

Q: Which LD50 (Anas platyrhynchos) does the source give for `O=c1oc2ccccc2c(O)c1C(CC(O)c1ccc(-c2ccc(Br)cc2)cc1)c1ccccc1` (centres undefined) [Bromadiolone] here?
A: 1290 mg/kg

Q: What about the LD50 (Colinus virginianus; duration: 5 days, diet) of the same compound?
A: 8.3 mg/kg-day

Q: What about the LD50 (Colinus virginianus) of the same compound?
A: 138 mg/kg

Q: And the NOEL (Coturnix japonica)?
A: 0.011 mg/kg-day

Q: And the LC50 (Daphnia magna)?
A: 2 mg/L (≈ 3.79 µM)

Q: And the LC50 (Oncorhynchus mykiss)?
A: > 8 mg/L

Q: What about the NOAEL (Oryctolagus sp.) of the same compound?
A: 0.5 mg/kg-day

Q: And the LD50 (Rattus norvegicus)?
A: < 0.84 mg/kg

Q: What about the LC50 (Tagia sp.) of the same compound?
A: > 4.74 mg/kg
